Experiments:
Assay type in all cases: functional
[1] = tested on: RPMI-8226; test: Growth inhibition of human RPMI8226 cells after 48 hrs by SRB protein assay; conditions: RPMI-8226, 48 h
[2] = tested on: Hs-578T; test: Growth inhibition of human HS578T cells after 48 hrs by SRB protein assay
[3] = tested on: NCI-H460; test: Growth inhibition of human NCI-H460 cells after 48 hrs by SRB protein assay; conditions: NCI-H460, 48 h
[4] = tested on: SF-268; test: Growth inhibition of human SF268 cells after 48 hrs by SRB protein assay; conditions: SF-268, 48 h
[5] = tested on: MDA-MB-231; test: Growth inhibition of MDA-MB-231 cells after 48 hrs by SRB protein assay; conditions: Homo sapiens, MDA-MB-231, 48 h
[6] = tested on: OVCAR-8; test: Growth inhibition of human OVCAR8 cells after 48 hrs by SRB protein assay; conditions: OVCAR-8, 48 h
[7] = tested on: SK-MEL-5; test: Growth inhibition of human SK-MEL-5 cells after 48 hrs by SRB protein assay; conditions: SK-MEL-5, 48 h
[8] = tested on: SK-MEL-2; test: Growth inhibition of human SK-MEL-2 cells after 48 hrs by SRB protein assay; conditions: SK-MEL-2, 48 h
[9] = tested on: OVCAR-3; test: Growth inhibition of human OVCAR-3 cells after 48 hrs by SRB protein assay; conditions: OVCAR-3, 48 h
[10] = tested on: SK-OV-3; test: Growth inhibition of human SK-OV-3 cells after 48 hrs by SRB protein assay; conditions: SK-OV-3, 48 h
[11] = tested on: SF-539; test: Growth inhibition of human SF539 cells after 48 hrs by SRB protein assay; conditions: SF-539, 48 h
[12] = tested on: HOP-62; test: Growth inhibition of human HOP62 cells after 48 hrs by SRB protein assay; conditions: HOP-62, 48 h
[13] = tested on: MOLT-4; test: Growth inhibition of human MOLT4 cells after 48 hrs by SRB protein assay; conditions: MOLT-4, 48 h
[14] = tested on: UACC-62; test: Growth inhibition of human UACC62 cells after 48 hrs by SRB protein assay; conditions: UACC-62, 48 h
[15] = tested on: MDA-MB-435; test: Growth inhibition of human MDA-MB-435 cells after 48 hrs by SRB protein assay; conditions: MDA-MB-435, 48 h
[16] = tested on: NCI-H522; test: Growth inhibition of human NCI-H522 cells after 48 hrs by SRB protein assay; conditions: NCI-H522, 48 h
[17] = tested on: SNB-75; test: Growth inhibition of human SNB75 cells after 48 hrs by SRB protein assay; conditions: SNB-75, 48 h
[18] = tested on: SK-MEL-28; test: Growth inhibition of human SK-MEL-28 cells after 48 hrs by SRB protein assay; conditions: SK-MEL-28, 48 h
[19] = tested on: MCF7; test: Growth inhibition of human MCF7 cells after 48 hrs by SRB protein assay; conditions: MCF7, 48 h
[20] = tested on: LOX IMVI; test: Growth inhibition of human LOX IMVI cells after 48 hrs by SRB protein assay
[21] = tested on: SNB-19; test: Growth inhibition of human SNB19 cells after 48 hrs by SRB protein assay; conditions: SNB-19, 48 h
[22] = tested on: ACHN; test: Growth inhibition of human ACHN cells after 48 hrs by SRB protein assay
[23] = tested on: EKVX; test: Growth inhibition of human EKVX cells after 48 hrs by SRB protein assay
[24] = tested on: HOP-92; test: Growth inhibition of human HOP92 cells after 48 hrs by SRB protein assay; conditions: HOP-92, 48 h
[25] = tested on: SW-620; test: Growth inhibition of human SW620 cells after 48 hrs by SRB protein assay; conditions: SW-620, 48 h
[26] = tested on: COLO 205; test: Growth inhibition of human COLO205 cells after 48 hrs by SRB protein assay; conditions: COLO 205, 48 h
[27] = tested on: HCC 2998; test: Growth inhibition of human HCC2998 cells after 48 hrs by SRB protein assay; conditions: HCC 2998, 48 h
[28] = Growth inhibition of human 786O cells after 48 hrs by SRB protein assay; conditions: 786-0, 48 h
[29] = tested on: DU-145; test: Growth inhibition of human DU145 cells after 48 hrs by SRB protein assay; conditions: DU-145, 48 h
[30] = tested on: CAKI-1; test: Growth inhibition of human CAKI1 cells after 48 hrs by SRB protein assay; conditions: CAKI-1, 48 h
[31] = tested on: NCI-H23; test: Growth inhibition of human NCI-H23 cells after 48 hrs by SRB protein assay; conditions: NCI-H23, 48 h
[32] = tested on: RXF 393; test: Growth inhibition of human RXF393 cells after 48 hrs by SRB protein assay; conditions: RXF 393, 48 h
[33] = tested on: SF-295; test: Growth inhibition of human SF295 cells after 48 hrs by SRB protein assay; conditions: SF-295, 48 h
[34] = tested on: A549; test: Growth inhibition of human A549 cells after 48 hrs by SRB protein assay; conditions: A549, 48 h
[35] = tested on: NCI-H322M; test: Growth inhibition of human NCI-H322M cells after 48 hrs by SRB protein assay
[36] = tested on: UACC-257; test: Growth inhibition of human UACC257 cells after 48 hrs by SRB protein assay; conditions: UACC-257, 48 h
[37] = tested on: HCT-15; test: Growth inhibition of human HCT15 cells after 48 hrs by SRB protein assay; conditions: HCT-15, 48 h
[38] = tested on: PC-3; test: Growth inhibition of human PC3 cells after 48 hrs by SRB protein assay; conditions: PC-3, 48 h
[39] = tested on: KM12; test: Growth inhibition of human KM12 cells after 48 hrs by SRB protein assay; conditions: KM12, 48 h

O=C(Cc1csc2nc(-c3ccc(Br)cc3)cn12)N/N=C/c1ccccc1
GI50 [1]: 7.41 µM | TGI ([1]; read-out: Log TGI (converted)): > 100 µM | GI50 [2]: 16.2 µM | TGI ([2]; read-out: Log TGI (converted)): 51.3 µM | GI50 [3]: 52.5 µM | TGI ([3]; read-out: Log TGI (converted)): > 100 µM | GI50 [4]: > 100 µM | TGI ([4]; read-out: Log TGI (converted)): > 100 µM | GI50 [5]: 12.9 µM | TGI ([5]; read-out: Log TGI (converted)): 57.5 µM | GI50 [6]: 2.34 µM | TGI ([6]; read-out: Log TGI (converted)): 20.4 µM | GI50 [7]: 5.62 µM | TGI ([7]; read-out: Log TGI (converted)): 26.9 µM | GI50 [8]: 33.1 µM | TGI ([8]; read-out: Log TGI (converted)): > 100 µM | GI50 [9]: 24 µM | TGI ([9]; read-out: Log TGI (converted)): 46.8 µM | GI50 [10]: 66.1 µM | TGI ([10]; read-out: Log TGI (converted)): > 100 µM | GI50 [11]: 16.2 µM | TGI ([11]; read-out: Log TGI (converted)): 39.8 µM | GI50 [12]: 15.1 µM | TGI ([12]; read-out: Log TGI (converted)): 39.8 µM | GI50 [13]: 6.76 µM | TGI ([13]; read-out: Log TGI (converted)): 37.2 µM | GI50 [14]: 11.5 µM | TGI ([14]; read-out: Log TGI (converted)): 28.2 µM | GI50 [15]: 12 µM | TGI ([15]; read-out: Log TGI (converted)): 51.3 µM | GI50 [16]: 14.1 µM | TGI ([16]; read-out: Log TGI (converted)): 60.3 µM | GI50 [17]: 31.6 µM | TGI ([17]; read-out: Log TGI (converted)): 89.1 µM | GI50 [18]: > 100 µM | TGI ([18]; read-out: Log TGI (converted)): > 100 µM | GI50 [19]: 75.9 µM | TGI ([19]; read-out: Log TGI (converted)): > 100 µM | GI50 [20]: 12.3 µM | TGI ([20]; read-out: Log TGI (converted)): 91.2 µM | GI50 [21]: 43.7 µM | TGI ([21]; read-out: Log TGI (converted)): > 100 µM | GI50 [22]: 10.7 µM | TGI ([22]; read-out: Log TGI (converted)): 25.7 µM | GI50 [23]: 6.92 µM | TGI ([23]; read-out: Log TGI (converted)): 52.5 µM | GI50 [24]: 12.3 µM | TGI ([24]; read-out: Log TGI (converted)): 37.2 µM | GI50 [25]: 18.6 µM | TGI ([25]; read-out: Log TGI (converted)): 63.1 µM | GI50 [26]: 66.1 µM | TGI ([26]; read-out: Log TGI (converted)): > 100 µM | GI50 [27]: 13.2 µM | TGI ([27]; read-out: Log TGI (converted)): 49 µM | GI50 [28]: 27.5 µM | TGI ([28]; read-out: Log TGI (converted)): > 100 µM | GI50 [29]: 14.5 µM | TGI ([29]; read-out: Log TGI (converted)): 44.7 µM | GI50 [30]: 30.2 µM | TGI ([30]; read-out: Log TGI (converted)): 81.3 µM | GI50 [31]: 12.6 µM | TGI ([31]; read-out: Log TGI (converted)): 61.7 µM | GI50 [32]: 14.5 µM | TGI ([32]; read-out: Log TGI (converted)): 38.9 µM | GI50 [33]: 12 µM | TGI ([33]; read-out: Log TGI (converted)): 37.2 µM | GI50 [34]: 13.5 µM | TGI ([34]; read-out: Log TGI (converted)): 40.7 µM | GI50 [35]: 19.1 µM | TGI ([35]; read-out: Log TGI (converted)): 93.3 µM | GI50 [36]: 6.17 µM | TGI ([36]; read-out: Log TGI (converted)): 31.6 µM | GI50 [37]: 16.2 µM | TGI ([37]; read-out: Log TGI (converted)): > 100 µM | GI50 [38]: 20.4 µM | TGI ([38]; read-out: Log TGI (converted)): > 100 µM | GI50 [39]: 26.3 µM | TGI ([39]; read-out: Log TGI (converted)): > 100 µM

Reference: ChEMBL document CHEMBL1143799, “Synthesis and primary cytotoxicity evaluation of new imidazo[2,1-b]thiazole derivatives” (2007)
